# Source: ChEMBL document CHEMBL1135818, “A new, potent urotensin II receptor peptide agonist containing a Pen residue at the disulfide bridge” (J Med Chem, 2002)
# Bridge positions count the residues as written; N and C are the ends. Square brackets hold non-standard residues; d marks the D form. Peptide text beside a SMILES is read from it. dPen = CC(C)(S)[C@@H](N)C(=O)O; Pen = CC(C)(S)[C@H](N)C(=O)O
# Target: T1, Urotensin-2 receptor (Homo sapiens, UniProt Q9UKP6)
# T1 sequence (Q9UKP6 whole entry): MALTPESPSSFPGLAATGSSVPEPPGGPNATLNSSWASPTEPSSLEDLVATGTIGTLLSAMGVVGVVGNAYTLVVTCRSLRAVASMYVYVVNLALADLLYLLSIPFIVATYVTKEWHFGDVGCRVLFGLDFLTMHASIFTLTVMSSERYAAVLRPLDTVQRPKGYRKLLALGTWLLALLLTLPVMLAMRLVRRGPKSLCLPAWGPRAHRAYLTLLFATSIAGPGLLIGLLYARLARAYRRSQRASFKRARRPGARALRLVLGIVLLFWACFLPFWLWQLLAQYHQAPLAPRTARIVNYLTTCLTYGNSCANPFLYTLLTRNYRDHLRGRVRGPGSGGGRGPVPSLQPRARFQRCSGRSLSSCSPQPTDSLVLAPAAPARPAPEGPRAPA
# Assay: Ability to displace radioligand [125I]Tyr-hU-II from human recombinant Urotensin 2 receptor in CHO-K1 cells
# Assay type: cell-based
# Details: not given
row,SMILES,Log Ki
1,CC(C)[C@H](NC(=O)[C@H]1NC(=O)[C@H](Cc2ccc(O)cc2)NC(=O)[C@H](CCCCN)NC(=O)[C@H](Cc2c[nH]c3ccccc23)NC(=O)[C@H](Cc2ccccc2)NC(=O)[C@@H](NC(=O)[C@@H](N)CC(=O)O)CSSC1(C)C)C(=O)O,-7.9
2,CC(C)[C@H](NC(=O)[C@H]1NC(=O)[C@H](Cc2ccc(O)cc2)NC(=O)[C@H](CCCCN)NC(=O)[C@H](Cc2c[nH]c3ccccc23)NC(=O)[C@H](Cc2ccccc2)NC(=O)[C@@H](NC(=O)[C@@H](N)CC(=O)O)C(C)(C)SSC1(C)C)C(=O)O (H-D[Pen]FWKY[Pen]V-OH; disulfide 2-7),-8.9

# Target: T2, Urotensin-2 receptor (Homo sapiens) (UniProt Q9UKP6)
# T2 sequence (whole entry): T1 sequence (Q9UKP6 whole entry)
# Details: CHO-K1
row,SMILES,pD2
1,CC(C)[C@H](NC(=O)[C@@H]1CSSC[C@@H](NC(=O)[C@@H](N)CC(=O)O)C(=O)N[C@@H](Cc2ccccc2)C(=O)N[C@@H](Cc2c[nH]c3ccccc23)C(=O)N[C@@H](CCCCN)C(=O)N[C@@H](Cc2ccc(O)cc2)C(=O)N1)C(=O)O (H-D[dC]FWKYCV-OH; disulfide 2-7),8.6
2,CC(C)[C@H](NC(=O)[C@@H]1CSSC(C)(C)[C@@H](NC(=O)[C@@H](N)CC(=O)O)C(=O)N[C@@H](Cc2ccccc2)C(=O)N[C@@H](Cc2c[nH]c3ccccc23)C(=O)N[C@@H](CCCCN)C(=O)N[C@@H](Cc2ccc(O)cc2)C(=O)N1)C(=O)O (H-D[dPen]FWKYCV-OH; disulfide 2-7),9.6
3,CC(C)[C@H](NC(=O)[C@@H]1NC(=O)[C@H](Cc2ccc(O)cc2)NC(=O)[C@H](CCCCN)NC(=O)[C@H](Cc2c[nH]c3ccccc23)NC(=O)[C@H](Cc2ccccc2)NC(=O)[C@H](NC(=O)[C@@H](N)CC(=O)O)C(C)(C)SSC1(C)C)C(=O)O (H-D[dPen]FWKY[dPen]V-OH; disulfide 2-7),8.2
4,CC(C)[C@H](NC(=O)[C@@H]1CSSC[C@@H](NC(=O)[C@H](CC(=O)O)NC(=O)[C@H]2CCCN2C(=O)[C@@H](NC(=O)[C@@H](N)CCC(=O)O)[C@@H](C)O)C(=O)N[C@H](Cc2ccccc2)C(=O)N[C@@H](Cc2c[nH]c3ccccc23)C(=O)N[C@H](CCCCN)C(=O)N[C@@H](Cc2ccc(O)cc2)C(=O)N1)C(=O)O,8.3
5,CC(C)[C@H](NC(=O)[C@@H]1NC(=O)[C@H](Cc2ccc(O)cc2)NC(=O)[C@H](CCCCN)NC(=O)[C@H](Cc2c[nH]c3ccccc23)NC(=O)[C@H](Cc2ccccc2)NC(=O)[C@H](NC(=O)[C@@H](N)CC(=O)O)CSSC1(C)C)C(=O)O,6.7
